Data published in US20190002988A1, “METHOD OF USING A RET FUSION GENE AS A BIOMARKER TO SELECT NON SMALL CELL LUNG CANCER (NSCLC) AND THYROID CANCER PATIENTS FOR A CANCER TREATMENT” (Boehringer Ingelheim International GmbH, priority 2015, published 2019).

Assays:
[1] = tested on: tumor vessel density; test: tumor vessel density; conditions: in vivo
[2] = tested on: vascular endothelial growth factor receptors (VEGFRs); test: preclinical studies, inhibition of VEGFRs; type: biochemical
[3] = tested on: xenograft models of human solid tumors; conditions: Hilberg et al. 2008; cited from earlier work
[4] = biological target: VEGFR2 (Homo sapiens, UniProt P35968); conditions: in vitro; Hilberg et al. 2008; cited from earlier work
Sequence of VEGFR2 (P35968 20-1356, species assumed): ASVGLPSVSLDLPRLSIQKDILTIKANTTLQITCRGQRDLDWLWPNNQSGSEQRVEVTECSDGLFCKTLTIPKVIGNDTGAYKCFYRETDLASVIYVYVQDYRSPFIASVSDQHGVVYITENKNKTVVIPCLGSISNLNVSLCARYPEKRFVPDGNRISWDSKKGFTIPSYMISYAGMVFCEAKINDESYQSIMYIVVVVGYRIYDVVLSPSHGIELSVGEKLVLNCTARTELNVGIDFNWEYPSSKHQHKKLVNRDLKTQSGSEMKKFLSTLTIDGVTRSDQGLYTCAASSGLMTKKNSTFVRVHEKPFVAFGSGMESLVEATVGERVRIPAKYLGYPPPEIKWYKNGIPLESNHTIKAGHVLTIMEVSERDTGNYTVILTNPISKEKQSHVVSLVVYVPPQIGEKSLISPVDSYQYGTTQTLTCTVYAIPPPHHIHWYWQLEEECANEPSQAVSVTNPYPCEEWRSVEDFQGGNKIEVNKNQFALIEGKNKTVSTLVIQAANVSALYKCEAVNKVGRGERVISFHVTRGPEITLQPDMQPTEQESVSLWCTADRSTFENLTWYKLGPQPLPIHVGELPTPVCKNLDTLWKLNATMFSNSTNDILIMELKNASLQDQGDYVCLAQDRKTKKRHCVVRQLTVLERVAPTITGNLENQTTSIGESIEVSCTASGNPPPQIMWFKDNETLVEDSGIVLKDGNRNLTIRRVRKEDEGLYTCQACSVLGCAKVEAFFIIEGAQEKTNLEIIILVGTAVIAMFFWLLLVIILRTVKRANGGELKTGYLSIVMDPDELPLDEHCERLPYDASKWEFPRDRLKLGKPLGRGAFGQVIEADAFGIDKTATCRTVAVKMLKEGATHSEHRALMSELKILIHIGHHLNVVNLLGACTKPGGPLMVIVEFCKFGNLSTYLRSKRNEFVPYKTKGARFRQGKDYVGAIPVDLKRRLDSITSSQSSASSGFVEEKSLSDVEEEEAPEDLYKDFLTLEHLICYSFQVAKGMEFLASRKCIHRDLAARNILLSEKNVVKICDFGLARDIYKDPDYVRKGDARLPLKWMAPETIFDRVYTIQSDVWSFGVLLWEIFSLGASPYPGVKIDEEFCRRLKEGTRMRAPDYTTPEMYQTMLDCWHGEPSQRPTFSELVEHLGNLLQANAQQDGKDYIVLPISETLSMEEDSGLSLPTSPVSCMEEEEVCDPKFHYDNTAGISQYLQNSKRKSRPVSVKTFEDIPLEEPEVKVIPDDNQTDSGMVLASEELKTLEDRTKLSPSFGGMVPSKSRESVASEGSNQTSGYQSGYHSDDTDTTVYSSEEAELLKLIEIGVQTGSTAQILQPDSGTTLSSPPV

[5] = tested on: platelet-derived growth factor receptors (PDGFRs); test: preclinical studies, inhibition of PDGFRs; type: biochemical
[6] = tested on: endothelial- and smooth muscle cells and pericytes; test: signalling in endothelial- and smooth muscle cells and pericytes; type: cell-based
[7] = tested on: advanced NSCLC; conditions: combination with docetaxel; predefined patients with adenocarcinoma tumor histology; Reck et al. 2014; cited from earlier work
[8] = tested on: fibroblast growth factor receptors (FGFRs); test: preclinical studies, inhibition of FGFRs; type: biochemical
[9] = tested on: EGFR and ALK wild-type advanced NSCLC with CCDC6-RET fusion gene; test: Phase I case study, docetaxel plus nintedanib in a patient with CCDC6-RET fusion NSCLC; type: in vivo, human; conditions: one patient
From the text: The present study is a case study of long-term efficacy of docetaxel plus nintedanib (BIBF 1120; 3-Z-[1-(4-(N-((4-methyl-piperazin-1-yl)-methylcarbonyl)-N-methyl-amino)-anilino)-1-phenyl-methylene]-6-methoxycarbonyl-2-indolinone) over 33 months in a never smoking person with EGFR and ALK wild-type non-small cell lung cancer NSCLC.
The present case was a never smoking person with EGFR and ALK wild-type advanced NSCLC. After failure of first-line platinum-based chemotherapy, the patient was enrolled in a phase I dose-escalation study of nintedanib combined with docetaxel for Japanese patients with advanced NSCLC on June, 2010, with oral administration of nintedanib 150 mg twice daily plus docetaxel 75 mg/m^2 every 3 weeks (Okamoto I, Kaneda H, Satoh T et al. Phase I safety, pharmacokinetic, and biomarker study of BIBF 1120, an oral triple tyrosine kinase inhibitor in patients with advanced solid tumors. Mol Cancer Ther 2010; 9: 2825-2833.). […] A total of 48 treatment cycles (26 cycles of therapy with nintedanib alone) had been administered over 33 months until disease progression on March, 2013 (FIG. 1). To identify mutations which are highly susceptible to therapy with nintedanib, next-generation sequencing panels were applied that cover both mutational hotspots in 22 genes related to lung and colon tumorigenesis using DNA (FIG. 4) as well as 72 major variants of ALK, RET, ROS1, and NTRK1 fusion transcripts using RNA extracted from non-small lung tissues obtained by transbronchial biopsy (FIG. 5). Multiplex genetic testing has identified CCDC6-RET fusion gene in tissue specimens for lung cancer diagnosis (FIG. 2), and no other actionable mutations were identified.

[10] = preclinical studies, oral bioavailability; type: in vivo

Structure (SMILES)	tumor vessel density [1]	inhibition of VEGFRs [2]	tumor growth [3]	blockade of VEGFR2 [4]	inhibition of PDGFRs [5]	signalling in endothelial- and smooth muscle cells and pericytes [6]	overall survival compared with docetaxel alone [7]	inhibition of FGFRs [8]	treatment time until disease progression ([9]; 48 treatment cycles, 26 of them nintedanib alone after docetaxel was stopped) [months]	response ([9]; nintedanib 150 mg twice daily plus docetaxel 75 mg/m^2 every 3 weeks)	oral bioavailability [10]	adverse events leading to discontinuation ([9]; docetaxel discontinued after 22 cycles)
COC(=O)c1ccc2c(c1)NC(=O)/C2=C(\Nc1ccc(N(C)C(=O)CN2CCN(C)CC2)cc1)c1ccccc1 [nintedanib, 3-Z-[1-(4-(N-((4-methyl-piperazin-1-yl)-methylcarbonyl)-N-methyl-amino)-anilino)-1-phenyl-methylene]-6-methoxycarbonyl-2-indolinone]	reduces tumor vessel density	highly potent	delay or arrest of tumor growth	sustained blockade	highly potent	inhibits signalling	significantly and clinically meaningful improved overall survival	highly potent	33	radiographic response	orally bioavailable	
CC(=O)O[C@@]12CO[C@@H]1C[C@H](O)[C@@]1(C)C(=O)[C@H](O)C3=C(C)[C@@H](OC(=O)[C@H](O)[C@@H](NC(=O)OC(C)(C)C)c4ccccc4)C[C@@](O)([C@@H](OC(=O)c4ccccc4)[C@H]21)C3(C)C [docetaxel, reference compound]												lower extremity edema and fatigue
